{"source": "patent US7067632B2", "about": "“VP22 proteins and uses thereof” (priority 1997, dated 2006)", "format_in_all_cases": "cell-based", "key": {"[1]": {"test_system": "cellular microtubules (MTs) in COS 1 cells", "assay": "VP22 deletion mutants transfected into COS 1 cells, immunofluorescence with anti VP22 antibody AGV30: MT bundling and movement between cells", "conditions": "transfected COS 1 cells", "text": "To broadly identify the region of VP22 involved in MT interaction, we utilised a range of C terminal deletion mutants of the protein. The plasmids encoding WT, del-267, del-192 and del-119 (FIG. 3a) forms of VP22 were transfected into COS 1 cells and analysed by immunofluorescence using the anti VP22 antibody AGV30. The del-267 and del-119 constructs comprise respectively aminoacids 1–267 inclusive, and aminoacids 1–119 inclusive of the wild type sequence of VP22 of HSV1 as disclosed in above-cited WO 97/05265 and references cited therein. The del-192 construct consists of aminoacids 1–191 inclusive plus a residue 192 mutated to leucine.\nIn these examples the longer sequences have increasing efficiency."}, "[2]": {"test_system": "cellular microtubules (MTs) in COS 1 cells"}, "[3]": {"test_system": "cellular microtubules (MTs) in COS 1 cells", "assay": "Double immunofluorescence (anti-VP22, anti alpha tubulin) of COS 1 cells expressing VP22: co-localisation with and bundling of microtubules", "text": "To investigate the possibility that the pattern of localisation in cells expressing VP22 represents co-localisation with a component of the cytoskeleton, COS 1 cells were transfected with the VP22 expression plasmid pGE109. Forty hours after transfection, the cells were fixed with 100% methanol and double immunofluorescence carried out with antibodies against VP22 (polyclonal AGV30) and alpha tubulin (monoclonal anti alpha tubulin, Sigma).\nCOS 1 cells treated in the same manner were exposed to the MT stabilising drug taxol (10 microM) for 30 minutes prior to fixation. […] The MT binding property of VP22 can also be used to deliver coupling products between VP22 and other substances, such as taxol or a related compound to MTs."}, "[4]": {"test_system": "acetylated form of tubulin", "assay": "Acetylation of MTs: colocalisation immunofluorescence and Western blot with monoclonal antibody specific for acetylated tubulin", "text": "Acetylation of MTs was previously reported as a marker for MT stability (Piperno et al, J Cell Biol 104 (1987) 289–302). This has been shown by use of monoclonal antibody specific for the acetylated form of tubulin (obtainable from Sigma Chemical), in colocalisation assays by immunofluorescence, and by Western blot assays. This effect can be used as a biochemical marker for analysing and quantitating the level of MT stabilisation induced by VP22 or a variant or derviative thereof."}}, "data": [{"compound": "1–159: VP22 fragment consisting of residues 1–159", "values": [{"measurement": "MT bundling / cytoplasmic filament formation by VP22 forms", "setting": "[1]", "result": "did not appear to retain the MT-bundling activity"}]}, {"compound": "1–172: variant VP22 protein consisting of residues 1–172 of the native VP22 of HSV1", "values": [{"measurement": "MT bundling / cytoplasmic filament formation by VP22 forms", "setting": "[1]", "result": "retain in some degree the ability to bundle microtubules"}]}, {"compound": "COC(=O)Nc1nc2ccc(C(=O)c3cccs3)cc2[nH]1", "note": "[Nocodazole, nocodazole, reference compound]", "values": [{"measurement": "Effect of nocodazole on the MT network of untransfected cells", "setting": "[2]", "result": "depolymerisation of the MT network"}]}, {"compound": "CC(=O)O[C@H]1C(=O)[C@@]2(C)[C@H]([C@H](OC(=O)c3ccccc3)[C@]3(O)C[C@H](OC(=O)[C@H](O)[C@@H](NC(=O)c4ccccc4)c4ccccc4)C(C)=C1C3(C)C)[C@]1(OC(C)=O)CO[C@@H]1C[C@@H]2O", "note": "[taxol, reference compound]", "values": [{"measurement": "Effect on MTs in untransfected cells", "setting": "[3]; untransfected COS 1 cells, taxol 10 microM, 30 minutes prior to fixation", "result": "creating large bundles of MTs"}]}, {"compound": "VP22: product of the herpes simplex virus type 1 (HSV 1) UL49 gene, the structural tegument protein VP22, 32 kD", "values": [{"measurement": "Co-localisation with and bundling of the cellular MT network", "setting": "[3]; COS 1 cells transfected with pGE109, fixed 40 h after transfection", "result": "colocalises and reorganises the cellular MT network into bundles"}, {"measurement": "MT bundles in VP22 expressing cells exposed to taxol", "setting": "[3]; VP22 expressing COS 1 cells plus taxol 10 microM, 30 minutes", "result": "these bundles were even more striking and again co-localised with VP22"}, {"measurement": "Stabilisation of MTs against nocodazole depolymerisation", "setting": "[2]; VP22 expressing COS 1 cells, nocodazole 500 ng/ml, 30 minutes", "result": "does not depolymerise the MTs"}, {"measurement": "Stabilisation of MTs against depolymerisation by cold", "setting": "[2]; incubation of cells at 4 deg C", "result": "stabilised MTs against depolymerisation by 4 deg C. incubation"}, {"measurement": "Acetylation of MTs (marker for MT stability)", "setting": "[4]", "result": "associated with acetylation of the MTs"}, {"measurement": "MT bundling / cytoplasmic filament formation by VP22 forms", "setting": "[1]", "result": "VP22 in cytoplasmic filaments"}, {"measurement": "Movement of the protein between cells (transport)", "setting": "[1]", "result": "surrounded by cells with VP22 in their nuclei"}]}]}
